Test results reported in patent US20050267020A1, “Polypeptides derived from inducible hsp70 and pharmaceutical compositions containing the same” (priority 2001, published 2005).

What was measured:
[1] = tested on: murine CTL lines mCTL134, mCTL380, mCTL391, mCTL393; assay: Murine CTL avidity for peptide, 51Cr release cytotoxic assay; assay type: cell-based, HHD mice; conditions: peptide concentration, effector:target ratio 40:1, each CTL line with its respective Hsp70 peptide, read-out: avidity (50% of maximal lysis)
Method: The four graphs indicate the cell lysis by CTL lines obtained after stimulation with the following peptides, respectively: HSP134 (line mCTL134), HSP380 (line mCTL380), HSP391 (line mCTL391) and HSP393 (line mCTL393). The avidity of the CTLs for their cellular target is determined with a ^51Cr release assay with an effector:target ratio of 40:1. The percentage of lysis of target cells is expressed on the Y axis, as a function of peptide concentration in the medium, which is represented on the X axis. In each graph, the black curve with diamond-shaped points represent cell lysis in presence of HSP peptides, whereas the grey curve with square points represent cell lysis in presence of cognate HSC peptides.
For measuring the avidity of mCTL134 for cells presenting HSP134, the peptide concentration ranges from […]. For mCTL380, mCTL391 and mCTL393, the respective peptide concentration ranges from 1 pM to 1 μM. The different points on each curve correspond, from left to right, to peptide concentrations of 1 pM, 10 pM, 100 pM, 1 nM, 10 nM, 100 nM and 1 μM.
Generation of CTL in HLA-transgenic mice. […]
Cytotoxic assay. […] After incubation, 100 μL of supernatant was collected and radioactivity was measured in a γ-counter. Percentage of specific lysis was determined as: Lysis=(Experimental Release−Spontaneous Release)/(Maximal Release−Spontaneous Release)×100. […]

HLA-A*0201 = target: T1, HLA-A*0201 (Homo sapiens, UniProt P04439, D140Y/D185E/D98H/E176V/E277Q/G131W/G231S/I119V/I121R/I166T/I218V/L300P/L318F/N151K/N90K/P208A/P217A/Q86G/Q94H/R138H/R169H/T345S); assay: Measurement of peptide relative affinity to HLA-A*0201 on T2 cells; assay type: binding; conditions: Relative Affinity determination
T1 construct: Tap−/− cells expressing the studied HLA-class I molecule; endogenous in cells; host or cells: T2 cells (Tap-/-, HLA-A*0201)
Method: Measurement of Peptide Relative Affinity to HLA class I. Tap−/− cells expressing the studied HLA-class I molecule (3×10^5 cells/mL) were incubated with various concentrations of peptides ranging from 100 μM to 0.1 μM in serum-free RPMI 1640 medium supplemented with 100 ng/ml of human β-2m at 37° C. for 16 hours. Cells were then washed twice and stained with the specific anti-class I mAb followed by FITC conjugated goat anti mouse Ig mAb to quantify the expression of HLA-A*0201. For each peptide concentration, the HLA-specific staining was calculated as the % of the staining obtained with 100 μM of the reference peptide. The relative affinity (RA) is determined as: RA=(Concentration of each peptide that induces 20% of HLA expression/Concentration of the reference peptide that induces 20% of HLA expression). The lower the RA-value, the stronger is the peptide binding to HLA. The mean RA value for each peptide is determined from at least three independent experiments. […]
The affinity of each peptide was assayed experimentally by determination of the Relative Affinity: the necessary peptide dose to stabilise a reference quantity of HLA-A*0201 molecules at the surface of T2 cells; and the stability of each peptide was assayed by determination of the half-life of the peptide/HLA-A*0201 molecule complex (DC50: dissociation complex 50).

Row | Sequence | EC50 [1] [nM] | affinity for HLA-A*0201 (in words) (HLA-A*0201)
1 | LMGDKSENV [HSP 380] | ~10 | 
2 | YLGYPVTNAV [HSP 134(10)] |  | strong affinity
